Data: ChEMBL document CHEMBL4359811, “Development of Potent and Selective Pyrazolopyrimidine IRAK4 Inhibitors” (J Med Chem, 2019)
≈ marks a conversion by molar mass, not a printed value.

Legend:
[1] = AUC (infinity) in mouse at 300 mg/kg, po administered as suspension in 10% captisol; assay type: ADME, organism-based; design: dose 300 mg/kg, route oral, time infinity; details: in vivo
[2] = AUC (infinity) in mouse at 300 mg/kg, po administered as suspension in MCT; assay type: ADME, organism-based; design: dose 300 mg/kg, route oral, time infinity; details: in vivo
[3] = Plasma clearance in rat at 1 mg/kg, iv; assay type: ADME, organism-based
[4] = Cmax in monkey at 1 mg/kg, po; assay type: ADME, organism-based, Macaca mulatta; design: dose 1 mg/kg, route oral; details: rhesus monkey, in vivo
[5] = Plasma clearance in monkey at 1 mg/kg, iv; assay type: ADME, organism-based, Macaca mulatta; details: rhesus monkey
Mus musculus [6] = assay: In vivo inhibition of IRAK4 in CpG ODN 1826 induced C57BL/6 mouse assessed as blockade of TLR9 signalling by measuring TNFalpha levels at 100 mg/kg, po treated 1 hr prior to CpG ODN 1826 stimulation and measured after 1 hr by MSD assay; assay type: functional; design: scale not given: the % may be the effect or the level left
[7] = Volume of distribution at steady state in monkey at 1 mg/kg, iv; assay type: ADME, organism-based, Macaca mulatta; details: rhesus monkey, in vivo, read-out: Vdss
[8] = Cmax in mouse at 300 mg/kg, po administered as suspension in MCT; assay type: ADME, organism-based; design: dose 300 mg/kg, route oral; details: in vivo
[9] = Cmax in mouse at 30 mg/kg, po; assay type: ADME, organism-based; design: dose 30 mg/kg, route oral; details: in vivo
[10] = AUC (infinity) in mouse at 5 mg/kg, po; assay type: ADME, organism-based; design: dose 5 mg/kg, route oral, time infinity; details: in vivo
Mus musculus [11] = assay: In vivo inhibition of IRAK4 in CpG ODN 1826 induced C57BL/6 mouse assessed as blockade of TLR9 signalling by measuring IL-6 levels at 30 mg/kg, po treated 1 hr prior to CpG ODN 1826 stimulation and measured after 1 hr by MSD assay; assay type: functional; design: scale not given: the % may be the effect or the level left
[12] = Plasma clearance in dog at 0.3 mg/kg, iv; assay type: ADME, organism-based, Canis lupus familiaris
[13] = Oral bioavailability in monkey at 1 mg/kg; assay type: ADME, organism-based, Macaca mulatta; details: rhesus monkey, in vivo
[14] = Half-life in monkey at 1 mg/kg, po; assay type: ADME, organism-based, Macaca mulatta; details: rhesus monkey, in vivo
[15] = AUC (infinity) in mouse at 100 mg/kg, po administered as suspension in MCT; assay type: ADME, organism-based; design: dose 100 mg/kg, time infinity, route oral; details: in vivo
[16] = Oral bioavailability in mouse at 300 mg/kg administered as suspension in MCT; assay type: ADME, organism-based; details: in vivo
[17] = Protein binding in monkey plasma at 5 uM incubated for 4 hrs by LC-MS/MS analysis; assay type: ADME, cell-free, Macaca mulatta; details: rhesus monkey, read-out: PPB (converted)
[18] = Half-life in mouse at 5 mg/kg, po; assay type: ADME, organism-based; details: in vivo
[19] = AUC (infinity) in mouse at 30 mg/kg, po; assay type: ADME, organism-based; design: dose 30 mg/kg, time infinity, route oral; details: in vivo
[20] = Protein binding in mouse plasma at 5 uM incubated for 4 hrs by LC-MS/MS analysis; assay type: ADME, cell-free; details: read-out: PPB (converted)
[21] = Cmax in mouse at 100 mg/kg, po administered as suspension in MCT; assay type: ADME, organism-based; design: dose 100 mg/kg, route oral; details: in vivo
[22] = Plasma clearance in mouse at 1 mg/kg, iv; assay type: ADME, organism-based
[23] = Cmax in mouse at 100 mg/kg, po administered as suspension in 10% captisol; assay type: ADME, organism-based; design: dose 100 mg/kg, route oral; details: in vivo
[24] = Oral bioavailability in mouse at 300 mg/kg administered as suspension in 10% captisol; assay type: ADME, organism-based; details: in vivo
Mus musculus [25] = assay: In vivo inhibition of IRAK4 in CpG ODN 1826 induced C57BL/6 mouse assessed as blockade of TLR9 signalling by measuring IL-6 levels at 100 mg/kg, po treated 1 hr prior to CpG ODN 1826 stimulation and measured after 1 hr by MSD assay; assay type: functional; design: scale not given: the % may be the effect or the level left
[26] = Cmax in rat at 1 mg/kg, po; assay type: ADME, organism-based; design: dose 1 mg/kg, route oral; details: in vivo
[27] = Apparent permeability from apical to basolateral side in MDCK cells at 10 uM incubated for 180 mins and measured up to 180 min by LC-MS/MS analysis; assay type: ADME, cell-based, Canis lupus familiaris; details: dog
[28] = Half-life in mouse at 30 mg/kg, po; assay type: ADME, organism-based; details: in vivo
Mus musculus [29] = assay: In vivo inhibition of IRAK4 in CpG ODN 1826 induced C57BL/6 mouse assessed as blockade of TLR9 signalling by measuring TNFalpha levels at 30 mg/kg, po treated 1 hr prior to CpG ODN 1826 stimulation and measured after 1 hr by MSD assay; assay type: functional; design: scale not given: the % may be the effect or the level left
Mus musculus [30] = assay: In vivo inhibition of IRAK4 in CpG ODN 1826 induced C57BL/6 mouse assessed as blockade of TLR9 signalling by measuring IL-6 levels at 3 mg/kg, po treated 1 hr prior to CpG ODN 1826 stimulation and measured after 1 hr by MSD assay; assay type: functional; design: scale not given: the % may be the effect or the level left
[31] = Kinetic aqueous solubility of the compound in PBS buffer at pH 7.4 incubated for 24 hrs under shaking condition by LC-CLND assay; assay type: physicochemical; details: PBS buffer, pH 7.4; read-out: Kinetic_solubility
[32] = Half-life in dog at 1 mg/kg, po; assay type: ADME, organism-based, Canis lupus familiaris; details: in vivo
[33] = Cmax in dog at 1 mg/kg, po; assay type: ADME, organism-based, Canis lupus familiaris; design: dose 1 mg/kg, route oral; details: in vivo
[34] = AUC (infinity) in rat at 1 mg/kg, po; assay type: ADME, organism-based; design: dose 1 mg/kg, time infinity, route oral; details: in vivo
[35] = Cmax in mouse at 10 mg/kg, po; assay type: ADME, organism-based; design: dose 10 mg/kg, route oral; details: in vivo
[36] = Oral bioavailability in mouse at 100 mg/kg administered as suspension in MCT; assay type: ADME, organism-based; details: in vivo
[37] = Oral bioavailability in rat at 1 mg/kg; assay type: ADME, organism-based; details: in vivo
[38] = AUC (infinity) in mouse at 100 mg/kg, po administered as suspension in 10% captisol; assay type: ADME, organism-based; design: dose 100 mg/kg, route oral, time infinity; details: in vivo
[39] = Protein binding in human plasma at 5 uM incubated for 4 hrs by LC-MS/MS analysis; assay type: ADME, cell-free; details: read-out: PPB (converted)
[40] = Oral bioavailability in dog at 1 mg/kg; assay type: ADME, organism-based, Canis lupus familiaris; details: in vivo
Mus musculus [41] = assay: In vivo inhibition of IRAK4 in CpG ODN 1826 induced C57BL/6 mouse assessed as blockade of TLR9 signalling by measuring IL-6 levels at 10 mg/kg, po treated 1 hr prior to CpG ODN 1826 stimulation and measured after 1 hr by MSD assay; assay type: functional; design: scale not given: the % may be the effect or the level left
[42] = AUC (infinity) in mouse at 10 mg/kg, po; assay type: ADME, organism-based; design: dose 10 mg/kg, route oral, time infinity; details: in vivo
[43] = Half-life in mouse at 300 mg/kg, po administered as suspension in MCT; assay type: ADME, organism-based; details: in vivo
[44] = Half-life in mouse at 10 mg/kg, po; assay type: ADME, organism-based; details: in vivo
[45] = Drug concentration in CpG ODN 1826 induced C57BL/6 mouse plasma at 1 to 100 mg/kg, po treated 1 hr prior to CpG ODN 1826 stimulation and measured after 1 hr by MSD assay; assay type: ADME, organism-based; details: in vivo
[46] = AUC (infinity) in dog at 1 mg/kg, po; assay type: ADME, organism-based, Canis lupus familiaris; design: dose 1 mg/kg, time infinity, route oral; details: in vivo
[47] = Cmax in mouse at 300 mg/kg, po administered as suspension in 10% captisol; assay type: ADME, organism-based; design: dose 300 mg/kg, route oral; details: in vivo
[48] = Volume of distribution at steady state in dog at 0.3 mg/kg, iv; assay type: ADME, organism-based, Canis lupus familiaris; details: in vivo, read-out: Vdss
[49] = Half-life in mouse at 100 mg/kg, po administered as suspension in MCT; assay type: ADME, organism-based; details: in vivo
[50] = AUC (infinity) in monkey at 1 mg/kg, po; assay type: ADME, organism-based, Macaca mulatta; design: dose 1 mg/kg, time infinity, route oral; details: rhesus monkey, in vivo
[51] = Half-life in mouse at 100 mg/kg, po administered as suspension in 10% captisol; assay type: ADME, organism-based; details: in vivo

Structure (SMILES): C[C@]1(CO)Cc2cc(NC(=O)c3cnn4cccnc34)c(N3CCOCC3)cc2O1
- AUC(0-inf) [1]: 340 µM·h
- AUC(0-inf) [2]: 63 µM·h
- clearance [3]: 6.6 mL/min/kg
- Cmax [4]: 0.3 µM
- clearance [5]: 11 mL/min/kg
- Activity (Mus musculus [6]): -89%
- Vd [7]: 4.4 L/kg
- Cmax [8]: 10 µM
- Cmax [9]: 7.2 µM
- AUC(0-inf) [10]: 2.3 µM·h
- Activity (Mus musculus [11]): -78%
- clearance [12]: 9.3 mL/min/kg
- bioavailability [13]: 85%
- half-life [14]: 3 h
- AUC(0-inf) [15]: 15.1 µM·h
- bioavailability [16]: 22%
- fraction unbound at 4 h, 5 µM [17]: 0.49
- half-life [18]: 0.5 h
- AUC(0-inf) [19]: 17 µM·h
- fraction unbound at 4 h, 5 µM [20]: 0.14
- Cmax [21]: 4.8 µM
- clearance [22]: 54 mL/min/kg
- Cmax [23]: 9.7 µM
- bioavailability [24]: 33%
- Activity (Mus musculus [25]): -91%
- Cmax [26]: 0.4 µM
- Papp A→B at 3 h, 10 µM [27]: 15 ×10⁻⁶ cm/s
- half-life [28]: 1.3 h
- Activity (Mus musculus [29]): -79%
- Activity (Mus musculus [30]): -27%
- solubility kinetic at 24 h [31]: 10 µM (≈ 4.09 µg/mL)
- half-life [32]: 1.7 h
- Cmax [33]: 0.2 µM
- AUC(0-inf) [34]: 3 µM·h
- Cmax [35]: 5.4 µM
- bioavailability [36]: 19%
- bioavailability [37]: 42%
- AUC(0-inf) [38]: 98 µM·h
- fraction unbound at 4 h, 5 µM [39]: 0.44
- bioavailability [40]: 30%
- Activity (Mus musculus [41]): -69%
- AUC(0-inf) [42]: 10 µM·h
- half-life [43]: 23.2 h
- half-life [44]: 1.3 h
- Drug uptake [45]: Active
- AUC(0-inf) [46]: 1.4 µM·h
- Cmax [47]: 14 µM
- Vd [48]: 8 L/kg
- half-life [49]: 1.6 h
- AUC(0-inf) [50]: 3.3 µM·h
- half-life [51]: 3.3 h
